What was measured:
[1] = tested on: Total count Aerobic bacteria; assay: Total aerobic count on seeds, grains and spices sprayed with sanitizing solutions; assay type: cell-based
Method: (§1) Seeds were mechanically cleaned and spread in stainless steel containers. Each 100 grams seeds were sprayed with 4 ml total solutions descried above via conventional trigger vaporizer. This solution is equivalent to 40 L disinfecting solution total sprayed on 1-ton seeds. Seeds, grains and spices were selected to represent all families and types of seeds, grains and spices. Another criteria was to select seeds and grains contaminated with a high count of total aerobic bacteria, yeast, mold, E. coli, Salmonella sp. and other pathogenic microorganisms.
(§2) Seeds, grains and spices treated were: • Whole dried pea, • Split pea dried, • Pea fiber, • Vanilla, • Chia, • Sprouted flax and chia, • Flax, • Hemp, and • Black pepper seeds

[2] = tested on: Y&M (yeast, mold); assay: Yeast and mold (Y&M) count on seeds, grains and spices sprayed with sanitizing solutions; assay type: cell-based; conditions: for Y&M, n1: replicate n1; for Y&M, n2: replicate n2
Method: as §1, §2

[3] = Whole dried pea, 40 L per 1 ton
[4] = Whole split pea, 40 L per 1 ton

SMILES	Conclusion in words on bactericidal efficacy ([1]; Black pepper, 40 L per 1 ton)	Conclusion in words on bactericidal efficacy ([1]; Hemp, 40 L per 1 ton)	Conclusion in words on bactericidal efficacy ([1]; Pea fiber, 40 L per 1 ton)	Conclusion in words on bactericidal efficacy ([1]; Vanilla, 40 L per 1 ton)	Conclusion in words on bactericidal efficacy [1, 3]	Conclusion in words on bactericidal efficacy [1, 4]	Conclusion in words on bactericidal efficacy ([1]; Sprouted flax and chia)	Y&M, Av ([2]; Pea fiber)	Y&M, n1 ([2]; Pea fiber)	Y&M, n2 ([2]; Pea fiber)	Y&M, Av ([2]; Whole dried pea)	Y&M, n1 ([2]; Whole dried pea)	Y&M, n2 ([2]; Whole dried pea)	Y&M, Av ([2]; Whole split pea)	Y&M, n1 ([2]; Whole split pea)	Y&M, n2 ([2]; Whole split pea)
CC(=O)OO [Peracetic acid]	strong bactericidal agent	strong bactericidal agent	strong bactericidal agent	strong bactericidal agent	strong bactericidal agent	strong bactericidal agent	–	–	–	–	–	–	–	–	–	–
CCO [2- Alcohol - ethanol, ethanol]	not a strong bactericidal agent	not a strong bactericidal agent	not a strong bactericidal agent	not a strong bactericidal agent	not a strong bactericidal agent	not a strong bactericidal agent	bactericidal agent but not very strong	Y&M not detected	n1, n2 not detected	n1, n2 not detected	Y&M not detected	n1, n2 not detected	n1, n2 not detected	Y&M not detected	n1, n2 not detected	n1, n2 not detected
